Assay: Calculation of the molar extinction coefficient (absorption spectrum in ethanol)
Format: physicochemical
Conditions: absorbance at 790 nm, 5 μM in ethanol, optical path length 1 cm
Method: An ICG lipid solution, prepared by the dissolution of the particular ICG lipid derivative or ICG in ethanol to provide 5 μM in each case, was introduced into a cuvette with an optical path length of 1 cm, and the absorption spectrum at 230 to 1000 nm was measured using an Infinite M200 (Tecan). The absorption spectra in FIG. 5 were provided by subtracting the absorption spectra of ethanol from the absorbance at each wavelength.
The molar concentration used in the calculation of the molar extinction coefficient was itself calculated using a purity of 100% for the ICG lipid derivative and using the nonsalt form.

Which “molar extinction coefficient ε” value does the source give for `CC1(C)C(/C=C/C=C/C=C/C=C2/N(CCCCS(=O)(=O)[O-])c3ccc4ccccc4c3C2(C)C)=[N+](CCCCS(=O)(=O)[O-])c2ccc3ccccc3c21.[Na+]` [ICG, Indocyanine green, reference compound] here?
Its value is 208980 L/mol/cm.

Which “molar extinction coefficient ε” value does the source give for `CCCCCCCC/C=C\CCCCCCCC(=O)OCC(COP(=O)(O)OCCNC(=O)CCN1/C(=C/C=C/C=C/C=C/C2=[N+](CCCCS(=O)(=O)[O-])c3ccc4ccccc4c3C2(C)C)C(C)(C)c2c1ccc1ccccc21)OC(=O)CCCCCCC/C=C\CCCCCCCC` (centres unmarked) [ICG-DOPE, 4-(2-((1E,3E,5E,7E)-7-(3-(3-((2-(((2,3-bis(oleoyloxy)propoxy)oxidophosphoryl)oxy)ethyl)amino)-3-oxopropyl)-1,1-dimethyl-1,3-dihyro-2H-benzo[e]indol-2-ylidene)hepta-1,3,5-trien-1-yl)-1,1-dimethyl-1H-benzo[e]indol-3-ium-3-yl)butane-1-sulfonate, reference compound] here?
Its value is 165860 L/mol/cm.

For `CCCCCCCC/C=C\CCCCCCCC(=O)OCC(COP(=O)([O-])OCCNC(=O)CC[N+]1=C(/C=C/C=C/C=C/C=C2/N(CCC(=O)NCCOP(=O)(O)OCC(COC(=O)CCCCCCC/C=C\CCCCCCCC)OC(=O)CCCCCCC/C=C\CCCCCCCC)c3ccc4ccccc4c3C2(C)C)C(C)(C)c2c1ccc1ccccc21)OC(=O)CCCCCCC/C=C\CCCCCCCC` (centres unmarked) [ICG-diDOPE, 2-(3-(2-((1E,3E,5E,7E)-7-(3-(3-((2-(((2,3-bis(oleoyloxy)propoxy)(hydroxy)phosphoryl)oxy)ethyl)amino)-3-oxopropyl)-1,1-dimethyl-1,3-dihydro-2H-benzo[e]indol-2-ylidene)hepta-1,3,5-trien-1-yl)-1,1-dimethyl-1H-benzo[e]indol-3-ium-3-yl)propanamide)ethyl(2,3-bis(oleoyloxy)propyl) phosphate], which “molar extinction coefficient ε” value is on record?
The value was 161100 L/mol/cm.

Which “molar extinction coefficient ε” value does the source give for `CCCCCCCCCCCCCCCCCC(=O)OCC(COP(=O)([O-])OCCNC(=O)CC[N+]1=C(/C=C/C=C/C=C/C=C2/N(CCC(=O)NCCOP(=O)(O)OCC(COC(=O)CCCCCCCCCCCCCCCCC)OC(=O)CCCCCCCCCCCCCCCCC)c3ccc4ccccc4c3C2(C)C)C(C)(C)c2c1ccc1ccccc21)OC(=O)CCCCCCCCCCCCCCCCC` (centres unmarked) [ICG-diDSPE, 2-(3-(2-((1E,3E,5E,7E)-7-(3-(3-((2-(((2,3-bis(stearoyloxy)propoxy)(hydroxy)phosphoryl)oxy)ethyl)amino)-3-oxopropyl)-1,1-dimethyl-1,3-dihydro-2H-benzo[e]indol-2-ylidene)hepta-1,3,5-trien-1-yl)-1,1-dimethyl-1H-benzo[e]indol-3-ium-3-yl)propanamide)ethyl (2,3-bis(stearoyloxy)propyl) phosphate] here?
Its value is 199840 L/mol/cm.

Which “molar extinction coefficient ε” value does the source give for `CCCCCCCCCCCCCCCCCCNC(=O)CCN1/C(=C/C=C/C=C/C=C/C2=[N+](CCC(=O)NCCCCCCCCCCCCCCCCCC)c3ccc4ccccc4c3C2(C)C)C(C)(C)c2c1ccc1ccccc21` [ICG-diSA, 2-((1E,3E,5E,7E)-7-(1,1-dimethyl-3-(3-(octadecylamino)-3-oxopropyl)-1,3-dihydro-2H-benzo[e]indol-2-ylidene)hepta-1,3,5-trien-1-yl)-1,1-dimethyl-3-(3-(octadecylamino)-3-oxopropyl)-1H-benzo[e]indol-3-ium] here?
The value was 177760 L/mol/cm.

— US20260117071A1, “ICG LIPID DERIVATIVE, AND LIPID MICROPARTICLES EACH CONTAINING SAME” (Eisai R&D Management Co., Ltd., priority 2022, published 2026)
